Consider six molecules from US7071359B1, “Neuropathy improvers containing nitrogenous compounds as the active ingredient” (Teijin Limited, priority 1999, dated 2006).

The subject of data set [1] is Mouse neuroblastoma Neuro2A cells. The experiment in a line: Promotion activity on the neurite outgrowth (1): proportion of cells with extended neurite. Particulars: for Proportion of cells with neurite (%) mean value ± standard error: 10 nM. Type of data set: cell-based. As to the method:
(§1) Mouse neuroblastoma Neuro2A cells (obtained from DAINIPPON PHARMACEUTICAL CO., LTD.) were suspended with a density of 2.5×10^4 cells/mL in DMEM containing 10% FCS and 2 mM of Gln, and were plated on commercially available 24-well tissue culture plates with a quantity of 400 μL/well. After an overnight culture under the conditions where the temperature was 37° C., and the carbon dioxide content of the air was 5%, the media was exchanged to an identical media containing the test compound, and the culture was further continued for 24 hours. Then microscope photographs were taken with a 20× lens. Using the photographs, by counting the total number of cells in the field of view and the number of cells with extended neurite, the proportion of cells with extended neurite is calculated.

Data set [2] shares this test system. The experiment in a line: Promotion activity on the neurite outgrowth (2): length of neurite per cell. Type of data set: cell-based. As to the method: as §1
The cells used and the performed culture method were identical to those in Reference example (1). After being cultured in a media containing the test compound for 24 hours, microscope photographs were taken with a 20× lens. […] Using image processing software, the area covered by the neurites were calculated, and, since the thickness used to mark the neurite was uniform, the analysis was performed considering that the area was proportional to the length, and allowing to compute the length of neurite per cell.

Data set [3] has as its system Bovine cerebral capillary endothelial cells. The experiment in a line: Permeability through the blood brain barrier: incorporation into bovine cerebral capillary endothelial cells. Type of data set: in vitro ADME. The note with it: test compound 1 μM, 15 minutes, ethanol extraction, HPLC. On the procedure:
Bovine cerebral capillary endothelial cells were cultured on a 100 mm diameter plate (coated with collagen I) to obtain confluency. The cells were cultured for 15 minutes in an incorporation media (141 mM NaCl, 4 mM KCl, 2 mM CaCl2, 1 mM […], 10 mM HEPES, 10 mM D-glucose) containing the test compound (1 μM), to incorporate the test compound into the cells. Then, the test compound incorporated into the cells was extracted with ethanol extraction, and quantified by HPLC. The rate of incorporation was calculated with the equation below. amount of test compound in the ethanol-extracted fraction/amount of test compound in the incorporation solution×100(%)

In data set [4] the test system is Wistar male rats, model for Alzheimer's disease by the continuous intracerebroventricular administration of β-amyloid proteins. Kind of data set: Step-through passive avoidance test in rats given β-amyloid protein continuously into the cerebral ventricle. Type of data set: in vivo, rat. Particulars: Examples 44-47, β-amyloid protein alone 300 pmol/day, continuous intracerebroventricular by osmotic pump. The source says: A step-through passive avoidance instrument made of two chambers separated by a guillotine door was used as the experimental apparatus. One chamber is an illuminated chamber made of transparent acrylic boards (floor: 15 cm×25 cm, height: 15 cm), the other chamber is a dark chamber made of black acryl boards (same dimensions). In addition, the floor of the dark chamber was equipped with a grid made of 4 mm diameter stainless steel pieces separated by 15 mm spacing. The grid was connected to an apparatus for delivering electric shocks (shock generator scrambler).
First, the guillotine door was opened for one minute to let a rat freely explore the interior of the apparatus. Then, for acquisition trials, the door was closed and the rat was put into the illuminated chamber. 30 seconds later, the door was opened and immediately after the four legs of the rat were put inside the dark chamber, the door was closed and an electric shock was delivered. The strength of the electric shock was 0.5 mA for 5 seconds. The training was repeated until the rat remained in the illuminated chamber for more than 120 seconds when the rat was placed in the illuminated chamber immediately after the electric shock and the door was opened in a similar way. 24 hours after the acquisition trials, the rat was put into the illuminating chamber for retention trials, 30 seconds after, the guillotine door was opened, and the time taken for the four legs of the rat to enter the dark chamber was measured (step-through latency). The maximum observation time during retention trials was set to 300 seconds.
(§2) 7 week old Wistar male rats (weight 220 to 250 g) were used (N=5 to 10).
β-amyloid protein (1–42) was dissolved in 35% acetonitrile-0.1% trifluoroacetic acid in water, injected in a mini-osmotic pump, which had been set to deliver 300 pmol/day (volume: 230 μL, flow: 0.5 μL/hour), and connected to a dental syringe needle through a polyethylene tube. Animals in control group were connected to a pump to which β-amyloid protein (40–1) orvehicleonly was injected. […]

For data set [5] the test system is unchanged. The experiment in a line: Y-maze test (spontaneous alternation behavior test) in rats given β-amyloid protein continuously into the cerebral ventricle. Type of data set: in vivo, rat. Particulars: Examples 48-51, β-amyloid protein alone 300 pmol/day, continuous intracerebroventricular by osmotic pump. On the procedure:
A Y-shaped maze made by connecting three arms having a length of 35 cm each, a wall height of 25 cm and a floor width of 10 cm at an angle of 120° with respect to each other. The apparatus was settled on the laboratory floor.
A rat was placed at the extremity of one of the arms, was allowed to freely explore the maze for 8 minutes, and a record was taken of the order in which the arms were explored by the rat. By calling (A) the “Total arm entries”, and among them, by calling (B) the “Number of spontaneous alternations” which is the number of cases where 3 different arms were selected in sequence, the “Percentage of spontaneous alternations” was calculated with: (B/(A−2))×100.
as §2
β-amyloid protein (1–42) was dissolved in 35% acetonitrile-0.1% trifluoroacetic acid in water, injected in a mini-osmotic pump, which had been set to deliver 300 pmol/day (volume: 230 μL, flow: 0.5 μL/hour), and connected to a dental syringe needle through a polyethylene tube. Animals in control group were connected to a pump to which β-amyloid protein (40–1) orvehicleonly was injected. After anesthetizing the rats with pentobarbital (50 mg/Kg, i.p.), an incision was performed in each of their scalps, and following the brainatlas, holes were drilled in the cranium. […]

Where [6] appears, read: listed as β-amyloid protein (1-42).
[7] abbreviates: listed as β-amyloid protein (1–42).

“And” between values parts separate entries of the source, which are not always exact repeats. Equal entries are not always repeated.

As to `CCCCC[C@H](O)/C=C/[C@H]1[C@H](O)CC(=O)[C@@H]1CCCCCCC(=O)O` [PGE1], the “Proportion of cells with neurite (%) mean value ± standard error” value in data set [1] (Example 52, 24 hours) was found to be 26.0 ± 3.0%; in data set [1] (Example 54, 24 hours) it was 19.5 ± 1.9%. The “Promotion activity on the neurite outgrowth (value relative to PGE1)” value (shortened to “Promotion activity … (value relative to PGE1)”) worked out at 1.00 in data set [1] (Example 56, 24 hours, 10 μM); 1.00 in data set [1] (Example 57, 24 hours, 10 μM); 1.00 in data set [1] (Example 58, 24 hours, 10 μM). The “Length of neurite per single cell (pixel/cell) mean value ± standard error” value is recorded as 14.2 ± 1.5 pixel/cell in data set [2] (Example 53, 24 hours, 1 nM) and 5.7 ± 1.03 pixel/cell in data set [2] (Example 55, 24 hours, 100 nM).
Regarding `CCCC[C@](C)(O)C/C=C/[C@@H]1[C@H]2CC(CCCCC(=O)O)=C[C@H]2C[C@H]1O` [Test compound B], the “Rate of incorporation into bovine capillary endothelial cells (mean value of two experiments)” value in data set [3] (Example 61) and in data set [3] (Example 62) was “below detection limit” each time. Besides, the “Promotion activity … (value relative to PGE1)” value was 1.63 in data set [1] (Example 56, 24 hours, 10 μM) and 1.12 in data set [1] (Example 57, 24 hours, 0.1 μM (PGE1 at 10 μM)).
As for `Cc1cccc(C[C@@H](O)/C=C/[C@@H]2[C@H]3CC(CCCCCN4CCCC4)=C[C@H]3C[C@H]2O)c1` [Test compound C], the “Promotion activity … (value relative to PGE1)” value in data set [1] (Example 56, 24 hours, 10 μM) turned out to be 1.15.
`Cc1cccc(C[C@H](O)/C=C/[C@@H]2[C@H]3CC(CCCCCN(C)C)=C[C@H]3C[C@H]2O)c1` [Test compound D]: the “Promotion activity … (value relative to PGE1)” value in data set [1] (Example 56, 24 hours, 10 μM) turned out to be 1.31.
For the molecule `CCCC[C@](C)(O)C/C=C/[C@@H]1[C@H]2CC(CCCCCN(C)C)=C[C@H]2C[C@H]1O` [Test compound E], the “Promotion activity … (value relative to PGE1)” value in data set [1] (Example 56, 24 hours, 10 μM) was found to be 1.58.
Consider “β-amyloid protein(1-42): β-amyloid protein (1–42) given continuously into the cerebral ventricle by mini-osmotic pump to lower learning and memory in the rat model”, for which the “Time taken to move into the dark chamber during retention trials mean value ± standard error” value is 140.2 ± 53.8 (n = 5) seconds and 132.8 ± 58.1 (n = 5) seconds in data set [4]; 191.7 ± 49.0 s in data set [4] (setting [6]); “a decrease in the ability of learning and memory was observed” in data set [4] (setting [7]). In addition, the “Occurrence of spontaneous alternation behavior mean value ± standard error” value in data set [5] (setting [6]) was 65.6 ± 3.4% and 66.5 ± 4.7% and 59.1 ± 3.0%; in data set [5] (setting [7]), “a decrease in the ability of learning and memory was observed”.
